{
  "source": "patent US7517873B2",
  "about": "“Substituted pyrimidodiazepines” (Hoffman-La Roche Inc., priority 2007, dated 2009)",
  "note": "pIC50: −log10 of the molar value.",
  "data": [
    {"molecular_target": "T1, GST-PLK1 (Homo sapiens, UniProt P53350)", "T1 construct": "Full-length, active GST-PLK1 is purified from Sf9 insect cells; made in house; host or cells: Sf9 insect cells", "T1 sequence (P53350 whole entry)": "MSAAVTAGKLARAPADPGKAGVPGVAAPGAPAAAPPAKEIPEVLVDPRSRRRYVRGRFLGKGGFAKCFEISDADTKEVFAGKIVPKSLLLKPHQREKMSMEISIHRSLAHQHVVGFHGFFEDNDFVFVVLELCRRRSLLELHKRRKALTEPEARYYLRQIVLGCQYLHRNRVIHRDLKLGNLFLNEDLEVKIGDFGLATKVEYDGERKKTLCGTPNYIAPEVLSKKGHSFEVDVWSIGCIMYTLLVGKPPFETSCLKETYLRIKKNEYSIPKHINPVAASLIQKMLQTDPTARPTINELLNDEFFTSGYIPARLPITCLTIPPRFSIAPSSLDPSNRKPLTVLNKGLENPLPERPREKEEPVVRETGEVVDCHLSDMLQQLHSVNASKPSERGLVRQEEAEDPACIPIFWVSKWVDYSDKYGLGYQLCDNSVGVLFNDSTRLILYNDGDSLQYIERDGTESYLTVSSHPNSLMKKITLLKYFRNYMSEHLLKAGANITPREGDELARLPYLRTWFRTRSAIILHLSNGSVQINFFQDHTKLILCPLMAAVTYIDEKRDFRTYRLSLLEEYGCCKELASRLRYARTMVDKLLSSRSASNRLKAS", "experiment": "Biochemical Characterization Assay: GST-PLK1 kinase HTRF assay with GST-p53 substrate", "settings": "full-length GST-PLK1, GST-p53 and ATP, 37° C. for 35 minutes, HTRF signal", "protocol": "Biochemical Characterization Assay\nFull-length, active GST-PLK1 is purified from Sf9 insect cells, and full-length GST-p53 is purified from E. coli. Anti-phospho p53 antibody is from Cell Signaling Technology. Europium-conjugated anti-rabbit antibody is from PerkinElmer Life and Analytical Sciences. APC-conjugated anti-GST antibody is from Prozyme.\nTo assay compounds of the invention, two microliters of test compound (0.6 nM-4 mM) in DMSO or plain DMSO for control wells, 38 microliters of 20 mM HEPES pH 7, 50 mM NaCl, 10 mM MgCl2, 0.5 mM TCEP, 0.1 mM sodium orthovanadate, 0.1 mg/mL BSA, and 0.05% Triton X-100 (Kinase Assay Buffer) are added. […] Six microliters of GST-PLK1 (3 ug/mL) in Kinase Assay Buffer are then added and the solution incubated at 37° C. for 35 minutes. Six microliters of solution containing 43 mM EDTA to stop the reaction and a 1:600 dilution of anti-phospho-p53 antibody in 20 mM HEPES pH 7, 50 mM NaCl, and 0.5 mg/mL BSA (Antibody Binding Buffer) are added and the solution incubated at 37° C. for 30 minutes. […] The HTRF signal is read on an Envision reader from PerkinElmer Life and Analytical Sciences.", "values": [
      {"smiles": "COc1cc(C(=O)NC2CCN(C)CC2)ccc1Nc1ncc2c(n1)N(C1CCCC1)C[C@H](C)C(=O)N2C", "note": "[I-2b, 7S-4-(9-cyclopentyl-5,7-dimethyl-6-oxo-6,7,8,9-tetrahydro-5H-pyrimido[4,5-b][1,4]diazepin-2-ylamino)-3-methoxy-N-(1-methyl-piperidin-4-yl)-benzamide]", "pIC50": "> 6.30"},
      {"smiles": "COc1cc(C(=O)NCCCn2ccnc2)ccc1Nc1ncc2c(n1)N(C1CCC1)CCC(=O)N2C", "note": "[I-36, 4-(9-Cyclobutyl-5-methyl-6-oxo-6,7,8,9-tetrahydro-5H-pyrimido[4,5-b][1,4]diazepin-2-ylamino)-N-(3-imidazol-1-yl-propyl)-3-methoxy-benzamide]", "pIC50": "> 6.30"},
      {"smiles": "COc1cc(C(=O)NC2CCN(C)CC2)ccc1Nc1ncc2c(n1)N1CCCC(C1)C(=O)N2C", "note": "(racemic) [I-67, (rac)-3-Methoxy-4-(8-methyl-9-oxo-1,3,5,8-tetraaza-tricyclo[8.3.1.0*2,7*]tetradeca-2,4,6-trien-4-ylamino)-N-(1-methyl-piperidin-4-yl)-benzamide]", "pIC50": "< 5.30"},
      {"smiles": "CC1CN(C2CCCC2)c2nc(Nc3ccc(C(=O)NCCN(C)C)c(Cl)c3)ncc2N(C)C1=O", "note": "(racemic) [I-87, (rac)-2-Chloro-4-(9-cyclopentyl-5,7-dimethyl-6-oxo-6,7,8,9-tetrahydro-5H-pyrimido[4,5-b][1,4]diazepin-2-ylamino)-N-(2-dimethylamino-ethyl)-benzamide]", "pIC50": "5.30 to 6.30"},
      {"smiles": "COc1cc(C(=O)NC2CCN(C)CC2)ccc1Nc1ncc2c(n1)N(C1CCOCC1)CC(C)C(=O)N2C", "note": "(racemic) [I-45, (rac)-4-[5,7-Dimethyl-6-oxo-9-(tetrahydro-pyran-4-yl)-6,7,8,9-tetrahydro-5H-pyrimido[4,5-b][1,4]diazepin-2-ylamino]-3-methoxy-N-(1-methyl-piperidin-4-yl)-benzamide]", "pIC50": "> 6.30"},
      {"smiles": "CN1CCC(NC(=O)c2ccc(Nc3ncc4c(n3)N(C3CCCC3)CC(C)(C)C(=O)N4C)cc2)CC1", "note": "[I-50, 4-(9-Cyclopentyl-5,7,7-trimethyl-6-oxo-6,7,8,9-tetrahydro-5H-pyrimido[4,5-b][1,4]diazepin-2-ylamino)-N-(1-methyl-piperidin-4-yl)-benzamide]", "pIC50": "> 6.30"},
      {"smiles": "COc1ccc(C(=O)NC2CCOCC2)cc1Nc1ncc2c(n1)N(C1CCCC1)CC(C)C(=O)N2C", "note": "(racemic) [I-74, (rac)-3-(9-Cyclopentyl-5,7-dimethyl-6-oxo-6,7,8,9-tetrahydro-5H-pyrimido[4,5-b][1,4]diazepin-2-ylamino)-4-methoxy-N-(tetrahydro-pyran-4-yl)-benzamide]", "pIC50": "> 6.30"},
      {"smiles": "COc1cc(C(=O)NC2CCN(C)CC2)ccc1Nc1ncc2c(n1)N(C1CCCC1)CC(C)(C)C(=O)N2C", "note": "[I-39, 4-(9-Cyclopentyl-5,7,7-trimethyl-6-oxo-6,7,8,9-tetrahydro-5H-pyrimido[4,5-b][1,4]diazepin-2-ylamino)-3-methoxy-N-(1-methyl-piperidin-4-yl)-benzamide]", "pIC50": "> 6.30"},
      {"smiles": "COc1cc(C(=O)NC2CCN(C)CC2)ccc1Nc1ncc2c(n1)N(C1CCC1)CCC(=O)N2C", "note": "[I-24, 4-(9-Cyclobutyl-5-methyl-6-oxo-6,7,8,9-tetrahydro-5H-pyrimido[4,5-b][1,4]diazepin-2-ylamino)-3-methoxy-N-(1-methyl-piperidin-4-yl)-benzamide]", "pIC50": "> 6.30"},
      {"smiles": "COc1cc(C(=O)NC2CCN(Cc3ccccc3)CC2)ccc1Nc1ncc2c(n1)N(C1CCCC1)CC(C)C(=O)N2C", "note": "(racemic) [I-9, (rac)-N-(1-Benzyl-piperidin-4-yl)-4-(9-cyclopentyl-5,7-dimethyl-6-oxo-6,7,8,9-tetrahydro-5H-pyrimido[4,5-b][1,4]diazepin-2-ylamino)-3-methoxy-benzamide]", "pIC50": "> 6.30"},
      {"smiles": "CC1CN(C2CCCC2)c2nc(Nc3ccc(C(=O)NC4CCN(C)CC4)c(Cl)c3)ncc2N(C)C1=O", "note": "(racemic) [I-84, (rac)-2-Chloro-4-(9-cyclopentyl-5,7-dimethyl-6-oxo-6,7,8,9-tetrahydro-5H-pyrimido[4,5-b][1,4]diazepin-2-ylamino)-N-(1-methyl-piperidin-4-yl)-benzamide]", "pIC50": "> 6.30"},
      {"smiles": "COc1cc(C(=O)NC2CCN(C)CC2)ccc1Nc1ncc2c(n1)N(CC1CCCC1)CC(C)C(=O)N2C", "note": "(racemic) [I-55, (rac)-4-(9-Cyclopentylmethyl-5,7-dimethyl-6-oxo-6,7,8,9-tetrahydro-5H-pyrimido[4,5-b][1,4]diazepin-2-ylamino)-3-methoxy-N-(1-methyl-piperidin-4-yl)-benzamide]", "pIC50": "> 6.30"},
      {"smiles": "COc1cc(C(=O)NC2CCN(C)CC2)ccc1Nc1ncc2c(n1)N(C(C)C)CCC(=O)N2C", "note": "[I-43, 4-(9-Isopropyl-5-methyl-6-oxo-6,7,8,9-tetrahydro-5H-pyrimido[4,5-b][1,4]diazepin-2-ylamino)-3-methoxy-N-(1-methyl-piperidin-4-yl)-benzamide]", "pIC50": "> 6.30"},
      {"smiles": "COc1cc(C(=O)NC2CCN(C)CC2)ccc1Nc1ncc2c(n1)N(Cc1ccccc1)CCC(=O)N2C", "note": "[I-22, 4-(9-Benzyl-5-methyl-6-oxo-6,7,8,9-tetrahydro-5H-pyrimido[4,5-b][1,4]diazepin-2-ylamino)-3-methoxy-N-(1-methyl-piperidin-4-yl)-benzamide]", "pIC50": "5.30 to 6.30"},
      {"smiles": "CC1CN(C2CCCC2)c2nc(Nc3cccc(C(=O)NC4CCOCC4)c3)ncc2N(C)C1=O", "note": "(racemic) [I-71, (rac)-3-(9-Cyclopentyl-5,7-dimethyl-6-oxo-6,7,8,9-tetrahydro-5H-pyrimido[4,5-b][1,4]diazepin-2-ylamino)-N-(tetrahydro-pyran-4-yl)-benzamide]", "pIC50": "5.30 to 6.30"},
      {"smiles": "COc1cc(C(=O)Nc2ccncc2)ccc1Nc1ncc2c(n1)N(C1CCC1)CCC(=O)N2C", "note": "[I-37, 4-(9-Cyclobutyl-5-methyl-6-oxo-6,7,8,9-tetrahydro-5H-pyrimido[4,5-b][1,4]diazepin-2-ylamino)-3-methoxy-N-pyridin-4-yl-benzamide]", "pIC50": "> 6.30"},
      {"smiles": "CCN1CCC(NC(=O)c2cccc(Nc3ncc4c(n3)N(C3CCCC3)CC(C)C(=O)N4C)c2)CC1", "note": "(racemic) [I-89, (rac)-3-(9-Cyclopentyl-5,7-dimethyl-6-oxo-6,7,8,9-tetrahydro-5H-pyrimido[4,5-b][1,4]diazepin-2-ylamino)-N-(1-ethyl-piperidin-4-yl)-benzamide]", "pIC50": "5.30 to 6.30"},
      {"smiles": "CN1C(=O)C2(CC2)CN(C2CCCC2)c2nc(Nc3ccc(C(=O)NC4CCOCC4)cc3)ncc21", "note": "[I-63, 4-[(9-Cyclopentyl-6,7,8,9-tetrahydro-5-methyl-6-oxospiro[5H-pyrimido[4,5-b][1,4]diazepine-7,1′-cyclopropan]-2-yl)amino]-N-(tetrahydropyran-4-yl)benzamide]", "pIC50": "> 6.30"},
      {"smiles": "COCCN1CCC(=O)N(C)c2cnc(Nc3ccc(C(=O)NC4CCN(C)CC4)cc3OC)nc21", "note": "[I-40, 3-Methoxy-4-[9-(2-methoxy-ethyl)-5-methyl-6-oxo-6,7,8,9-tetrahydro-5H-pyrimido[4,5-b][1,4]diazepin-2-ylamino]-N-(1-methyl-piperidin-4-yl)-benzamide]", "pIC50": "5.30 to 6.30"},
      {"smiles": "CC1CN(C2CCCC2)c2nc(Nc3ccc(C(=O)NC4CCOCC4)c(Cl)c3)ncc2N(C)C1=O", "note": "(racemic) [I-88, (rac)-2-Chloro-4-(9-cyclopentyl-5,7-dimethyl-6-oxo-6,7,8,9-tetrahydro-5H-pyrimido[4,5-b][1,4]diazepin-2-ylamino)-N-(tetrahydro-pyran-4-yl)-benzamide]", "pIC50": "5.30 to 6.30"},
      {"smiles": "COc1ccc(NC(=O)C2CCN(C(C)=O)CC2)cc1Nc1ncc2c(n1)N(C1CCCC1)CC(C)C(=O)N2C", "note": "(racemic) [I-80, (rac)-1-Acetyl-piperidine-4-carboxylic acid [3-(9-cyclopentyl-5,7-dimethyl-6-oxo-6,7,8,9-tetrahydro-5H-pyrimido[4,5-b][1,4]diazepin-2-ylamino)-4-methoxy-phenyl]-amide]", "pIC50": "5.30 to 6.30"},
      {"smiles": "CC1CN(C2CCCC2)c2nc(Nc3ccc(C(=O)NC4CCN(C)CC4)cc3)ncc2N(C)C1=O", "note": "(racemic) [I-6, (rac)-4-(9-Cyclopentyl-5,7-dimethyl-6-oxo-6,7,8,9-tetrahydro-5H-pyrimido[4,5-b][1,4]diazepin-2-ylamino)-N-(1-methyl-piperidin-4-yl)-benzamide]", "pIC50": "> 6.30"},
      {"smiles": "COc1cc(C(=O)O)ccc1Nc1ncc2c(n1)N(C1CCCC1)C(C)CC(=O)N2C", "note": "(racemic) [I-3, (rac)-4-(9-Cyclopentyl-5,8-dimethyl-6-oxo-6,7,8,9-tetrahydro-5H-pyrimido[4,5-b][1,4]diazepin-2-ylamino)-3-methoxy-benzoic acid]", "pIC50": "5.30 to 6.30"},
      {"smiles": "CC1CN(C2CCCC2)c2nc(Nc3cccc(C(=O)Nc4cccnc4)c3)ncc2N(C)C1=O", "note": "(racemic) [I-72, (rac)-3-(9-Cyclopentyl-5,7-dimethyl-6-oxo-6,7,8,9-tetrahydro-5H-pyrimido[4,5-b][1,4]diazepin-2-ylamino)-N-pyridin-3-yl-benzamide]", "pIC50": "> 6.30"},
      {"smiles": "COc1cc(C(=O)NC2CCN(C)CC2)ccc1N(C)c1ncc2c(n1)N(C1CCCCC1)CC(C)C(=O)N2C", "note": "(racemic) [I-66, (rac)-4-[(9-Cyclohexyl-5,7-dimethyl-6-oxo-6,7,8,9-tetrahydro-5H-pyrimido[4,5-b][1,4]diazepin-2-yl)-methyl-amino]-3-methoxy-N-(1-methyl-piperidin-4-yl)-benzamide]", "pIC50": "< 5.30"}
    ]}
  ]
}
